In brackets after ≈: the same amount, converted by molar mass.
Experiments:
[1] = test system: Aspergillus fumigatus; test: Antifungal activity against Aspergillus fumigatus CGMCC3.7795 assessed as inhibition of fungal growth by NCCLS protocol based method; type: functional
[2] = test system: Cryptococcus neoformans; test: Antifungal activity against Cryptococcus neoformans CGMCC2.3161 assessed as inhibition of fungal growth by NCCLS protocol based method; type: functional
[3] = test system: Candida albicans; test: Antifungal activity against Candida albicans SC5314 assessed as inhibition of fungal growth by NCCLS protocol based method; type: functional
[4] = test system: Candida albicans; test: Antifungal activity against Candida albicans CPCC400523 assessed as inhibition of fungal growth by NCCLS protocol based method; type: functional
[5] = test system: Candida parapsilosis; test: Antifungal activity against Candida parapsilosis GIM2.190 assessed as inhibition of fungal growth by NCCLS protocol based method; type: functional; conditions: Lodderomyces parapsilosis
[6] = test system: Candida albicans; test: Antifungal activity against Candida albicans GIM2.194 assessed as inhibition of fungal growth by NCCLS protocol based method; type: functional
[7] = test system: Candida tropicalis; test: Antifungal activity against Candida tropicalis GIM2.183 assessed as inhibition of fungal growth by NCCLS protocol based method; type: functional
[8] = test system: Pichia kudriavzevii; test: Antifungal activity against Candida krusei GIM2.1 assessed as inhibition of fungal growth by NCCLS protocol based method; type: functional
[9] = test system: Candida albicans; test: Antifungal activity against fluconazole resistant Candida albicans CaR assessed as inhibition of fungal growth by NCCLS protocol based method; type: functional
[10] = test system: Candida albicans; test: Antifungal activity against fluconazole and itraconazole resistant Candida albicans 17# assessed as inhibition of fungal growth by NCCLS protocol based method; type: functional
[11] = Metabolic stability in human liver microsomes assessed as half life at 100 uM in the presence of NADPH measured upto 60 mins by LC-MS/MS analysis; type: ADME, Microsome
[12] = test system: Cryptococcus neoformans; test: Antifungal activity against Cryptococcus neoformans GIM2.209 assessed as inhibition of fungal growth by NCCLS protocol based method; type: functional

MIC [1] [µg/mL] | MIC [2] [µg/mL] | MIC [3] [µg/mL] | MIC [4] [µg/mL] | MIC [5] [µg/mL] | MIC [6] [µg/mL] | MIC [7] [µg/mL] | MIC [8] [µg/mL] | half-life at 100 µM [11] [min] | MIC [12] [µg/mL] | Structure (SMILES) | MIC [9] [µg/mL] | MIC [10] [µg/mL]
8 (≈ 24.1 µM) | > 64 | 16 (≈ 48.3 µM) | 32 (≈ 96.6 µM) | – | – | – | – | – | – | O=C(c1ccc(-c2ccccc2)cc1)N1CCC[C@H]1Cn1ccnc1 | – | –
> 64 | > 64 | 4 (≈ 11 µM) | > 64 | – | – | – | – | – | – | CN(C)C(=O)C(Cn1ccnc1)NC(=O)c1ccc(-c2ccccc2)cc1 (centres undefined) | – | –
> 64 | – | > 16 | – | > 64 | > 16 | > 16 | > 64 | – | – | c1ccc(-c2ccc(C3=NC(Cn4cnnn4)(c4ccccc4)CO3)cc2)cc1 (centres undefined) | – | –
2 (≈ 5.47 µM) | 1 (≈ 2.74 µM) | < 0.03 | < 0.03 | – | – | – | – | 3.6 | – | CC[C@H](C)[C@@H](Cn1ccnc1)NC(=O)c1ccc(-c2ccccc2)cc1F | – | –
> 64 | – | < 0.125 | – | – | 0.5 (≈ 1.27 µM) | 0.5 (≈ 1.27 µM) | – | – | > 64 | c1ccc(CC2(Cn3ccnc3)COC(c3ccc(-c4ccccc4)cc3)=N2)cc1 (centres undefined) | – | –
> 64 | – | 0.06 (≈ 0.139 µM) | – | > 64 | > 16 | > 16 | > 64 | – | – | Fc1ccccc1-c1ccc(C2=NC(Cn3cncn3)(c3cccc(Cl)c3)CO2)cc1 (centres undefined) | – | –
> 64 | – | > 64 | – | – | > 64 | > 64 | – | – | > 64 | c1ccc(-c2ccc(C3=NC(Cn4ccnc4)C(c4ccccc4)O3)cc2)cc1 (centres undefined) | – | –
> 64 | – | > 16 | – | > 64 | > 16 | > 16 | > 64 | – | – | Fc1cc(F)cc(-c2ccc(C3=NC(Cn4cncn4)(c4ccccc4)CO3)cc2)c1 (centres undefined) | – | –
> 64 | – | > 16 | – | > 64 | > 16 | > 16 | > 64 | – | – | Clc1ccc(-c2ccc(C3=NC(Cn4cncn4)(c4ccccc4)CO3)cc2)cc1 (centres undefined) | – | –
1 (≈ 3.3 µM) | > 64 | 1 (≈ 3.3 µM) | 8 (≈ 26.4 µM) | – | – | – | – | 23.2 | – | c1ccc(-c2ccc(C3=N[C@@H](Cn4ccnc4)CO3)cc2)cc1 | – | –
> 64 | – | < 0.03 | – | 16 (≈ 40.2 µM) | < 0.03 | 0.06 (≈ 0.151 µM) | 0.5 (≈ 1.25 µM) | – | – | Fc1ccccc1-c1ccc(C2=NC(Cn3cncn3)(c3ccccc3)CO2)cc1 (centres undefined) | – | –
2 (≈ 5.26 µM) | – | < 0.03 | – | 0.25 (≈ 0.657 µM) | < 0.03 | 0.06 (≈ 0.158 µM) | 0.25 (≈ 0.657 µM) | – | – | c1ccc(-c2ccc(C3=NC(Cn4cncn4)(c4ccccc4)CO3)cc2)cc1 (centres undefined) | – | –
> 64 | > 64 | > 64 | > 64 | – | – | – | – | – | – | c1ccc(-c2ccc(C3=N[C@H](Cn4ccnc4)CO3)cc2)cc1 | – | –
> 64 | – | < 0.125 | – | – | > 64 | < 0.125 | – | – | > 64 | FC(F)(c1ccccc1)C1(Cn2ccnc2)COC(c2ccc(-c3ccccc3)cc2)=N1 (centres undefined) | – | –
0.5 (≈ 1.58 µM) | – | 2 (≈ 6.3 µM) | – | – | 8 (≈ 25.2 µM) | 4 (≈ 12.6 µM) | – | – | > 64 | CC1(Cn2ccnc2)COC(c2ccc(-c3ccccc3)cc2)=N1 (centres undefined) | – | –
> 64 | – | > 16 | – | > 64 | > 16 | > 16 | > 64 | – | – | FC(F)(F)Oc1ccc(-c2ccc(C3=NC(Cn4cncn4)(c4ccccc4)CO3)cc2)cc1 (centres undefined) | – | –
> 64 | – | > 16 | – | > 64 | > 16 | > 16 | > 64 | – | – | Clc1ccccc1-c1ccc(C2=NC(Cn3cncn3)(c3ccccc3)CO2)cc1 (centres undefined) | – | –

MIC [1] [µg/mL] | MIC [2] [µg/mL] | MIC [3] [µg/mL] | MIC [4] [µg/mL] | MIC [5] [µg/mL] | MIC [6] [µg/mL] | MIC [7] [µg/mL] | MIC [8] [µg/mL] | half-life at 100 µM [11] [min] | MIC [12] [µg/mL] | Structure (SMILES) | MIC [9] [µg/mL] | MIC [10] [µg/mL]
> 64 | – | < 0.03 | – | 16 (≈ 40.2 µM) | < 0.03 | 0.06 (≈ 0.151 µM) | < 0.125 | – | – | Fc1cccc(-c2ccc(C3=NC(Cn4cncn4)(c4ccccc4)CO3)cc2)c1 (centres undefined) | – | –
1 (≈ 2.64 µM) | – | < 0.125 | – | – | < 0.125 | < 0.125 | – | 106 | 32 (≈ 84.3 µM) | c1ccc(-c2ccc(C3=NC(Cn4ccnc4)(c4ccccc4)CO3)cc2)cc1 (centres undefined) | – | –
> 64 | – | > 16 | – | > 64 | > 16 | > 16 | > 64 | – | – | N#Cc1ccc(-c2ccc(C3=NC(Cn4cncn4)(c4ccccc4)CO3)cc2)cc1 (centres undefined) | – | –
< 0.125 | < 0.125 | < 0.03 | < 0.125 | < 0.125 | < 0.125 | < 0.125 | < 0.125 | – | < 0.125 | CCC(C)n1ncn(-c2ccc(N3CCN(c4ccc(OCC5COC(Cn6cncn6)(c6ccc(Cl)cc6Cl)O5)cc4)CC3)cc2)c1=O (centres undefined) [ITRACONAZOLE] | – | –
> 64 | > 64 | > 64 | > 64 | – | – | – | – | – | – | O=C(c1ccc(-c2ccccc2)cc1)N1CCC[C@@H]1Cn1ccnc1 | – | –
> 64 | – | 0.06 (≈ 0.138 µM) | – | > 64 | > 16 | > 16 | > 64 | – | – | Fc1cccc(-c2ccc(C3=NC(Cn4cncn4)(c4cc(F)cc(F)c4)CO3)cc2)c1 (centres undefined) | – | –
> 64 | – | < 0.03 | – | 16 (≈ 40.2 µM) | 0.06 (≈ 0.151 µM) | 0.06 (≈ 0.151 µM) | > 64 | – | – | Fc1cc(-c2ccccc2)ccc1C1=NC(Cn2cncn2)(c2ccccc2)CO1 (centres undefined) | – | –
> 64 | – | 0.5 (≈ 1.45 µM) | – | – | > 64 | < 0.125 | – | – | > 64 | CC(C)C1OC(c2ccc(-c3ccccc3)cc2)=NC1Cn1ccnc1 (centres undefined) | – | –
> 64 | – | > 16 | – | > 64 | > 16 | > 16 | > 64 | – | – | FC(F)(F)c1ccc(-c2ccc(C3=NC(Cn4cncn4)(c4ccccc4)CO3)cc2)cc1 (centres undefined) | – | –
> 64 | > 64 | 8 (≈ 22.9 µM) | > 64 | – | – | – | – | – | – | CC(C)(O)C(Cn1ccnc1)NC(=O)c1ccc(-c2ccccc2)cc1 (centres undefined) | – | –
> 64 | – | 0.5 (≈ 1.23 µM) | – | – | > 64 | > 64 | – | – | > 64 | O=C(c1ccccc1)C1(Cn2ccnc2)COC(c2ccc(-c3ccccc3)cc2)=N1 (centres undefined) | – | –
> 64 | > 64 | 8 (≈ 23 µM) | > 64 | – | – | – | – | – | – | O=C(NC(Cn1ccnc1)C1COC1)c1ccc(-c2ccccc2)cc1 (centres undefined) | – | –
> 64 | – | < 0.03 | – | 4 (≈ 10 µM) | < 0.03 | 0.06 (≈ 0.151 µM) | 0.5 (≈ 1.25 µM) | – | – | Fc1cc(C2=NC(Cn3cncn3)(c3ccccc3)CO2)ccc1-c1ccccc1 (centres undefined) | – | –
> 64 | – | > 16 | – | > 64 | > 16 | > 16 | > 64 | – | – | Clc1cccc(-c2ccc(C3=NC(Cn4cncn4)(c4ccccc4)CO3)cc2)c1 (centres undefined) | – | –
> 64 | – | > 64 | – | – | > 64 | 4 (≈ 12.6 µM) | – | – | > 64 | C[C@H]1OC(c2ccc(-c3ccccc3)cc2)=N[C@H]1Cn1ccnc1 | – | –
> 64 | – | 0.25 (≈ 0.627 µM) | – | > 64 | > 16 | 8 (≈ 20.1 µM) | > 64 | – | – | Fc1ccc(-c2ccc(C3=NC(Cn4cncn4)(c4ccccc4)CO3)cc2)cc1 (centres undefined) | – | –
> 64 | – | 0.06 (≈ 0.138 µM) | – | > 64 | > 16 | > 16 | > 64 | – | – | Fc1cc(F)cc(C2(Cn3cncn3)COC(c3ccc(-c4ccccc4F)cc3)=N2)c1 (centres undefined) | – | –

Structure (SMILES) | MIC [1] [µg/mL] | MIC [2] [µg/mL] | MIC [3] [µg/mL] | MIC [4] [µg/mL] | MIC [5] [µg/mL] | MIC [6] [µg/mL] | MIC [7] [µg/mL] | MIC [8] [µg/mL] | half-life at 100 µM [11] [min] | MIC [12] [µg/mL] | MIC [9] [µg/mL] | MIC [10] [µg/mL]
Fc1cccc(-c2ccc(C3=NC(Cn4cncn4)(c4ccc(Cl)cc4)CO3)cc2)c1 (centres undefined) | > 64 | – | < 0.03 | – | 4 (≈ 9.24 µM) | < 0.03 | 0.06 (≈ 0.139 µM) | 0.25 (≈ 0.578 µM) | – | – | 0.25 (≈ 0.578 µM) | > 64
Fc1ccc(C2(Cn3cncn3)COC(c3ccc(-c4ccccc4F)cc3)=N2)c(F)c1 (centres undefined) | > 64 | – | < 0.03 | – | 4 (≈ 9.21 µM) | 0.06 (≈ 0.138 µM) | 0.06 (≈ 0.138 µM) | 0.25 (≈ 0.575 µM) | – | – | 0.5 (≈ 1.15 µM) | > 64
Fc1cccc(-c2ccc(C3=NC(Cn4cncn4)(c4cccc(F)c4)CO3)cc2)c1 (centres undefined) | > 64 | – | 0.06 (≈ 0.144 µM) | – | > 64 | 0.06 (≈ 0.144 µM) | 0.25 (≈ 0.6 µM) | > 64 | – | – | > 64 | > 64
Fc1ccccc1-c1ccc(C2=NC(Cn3cncn3)(c3ccc(Cl)cc3)CO2)cc1 (centres undefined) | > 64 | – | < 0.03 | – | 4 (≈ 9.24 µM) | < 0.03 | 0.06 (≈ 0.139 µM) | 0.25 (≈ 0.578 µM) | – | – | 0.25 (≈ 0.578 µM) | > 64
Fc1cccc(-c2ccc(C3=NC(Cn4cncn4)(c4ccc(F)cc4F)CO3)cc2)c1 (centres undefined) | > 64 | – | < 0.03 | – | > 64 | 0.06 (≈ 0.138 µM) | 0.06 (≈ 0.138 µM) | 0.25 (≈ 0.575 µM) | – | – | 0.5 (≈ 1.15 µM) | > 64
Fc1cccc(C2(Cn3cncn3)COC(c3ccc(-c4ccccc4F)cc3)=N2)c1 (centres undefined) | > 64 | – | 0.06 (≈ 0.144 µM) | – | > 64 | 0.06 (≈ 0.144 µM) | 0.25 (≈ 0.6 µM) | > 64 | – | – | > 64 | > 64
